pIC50: −log10 of the molar value. Calls of active or inactive are those of the source. The calls are words filed in the database; no cut-off is given here.
How the values were obtained:
[1] = target: T1, Sodium- and chloride-dependent glycine transporter 1 (Homo sapiens, UniProt P48067); test: Inhibition of GlyT1a in human JAR cells assessed as inhibition of [3H]glycine uptake by scintillation proximity assay; type: cell-based
T1 sequence (P48067 whole entry): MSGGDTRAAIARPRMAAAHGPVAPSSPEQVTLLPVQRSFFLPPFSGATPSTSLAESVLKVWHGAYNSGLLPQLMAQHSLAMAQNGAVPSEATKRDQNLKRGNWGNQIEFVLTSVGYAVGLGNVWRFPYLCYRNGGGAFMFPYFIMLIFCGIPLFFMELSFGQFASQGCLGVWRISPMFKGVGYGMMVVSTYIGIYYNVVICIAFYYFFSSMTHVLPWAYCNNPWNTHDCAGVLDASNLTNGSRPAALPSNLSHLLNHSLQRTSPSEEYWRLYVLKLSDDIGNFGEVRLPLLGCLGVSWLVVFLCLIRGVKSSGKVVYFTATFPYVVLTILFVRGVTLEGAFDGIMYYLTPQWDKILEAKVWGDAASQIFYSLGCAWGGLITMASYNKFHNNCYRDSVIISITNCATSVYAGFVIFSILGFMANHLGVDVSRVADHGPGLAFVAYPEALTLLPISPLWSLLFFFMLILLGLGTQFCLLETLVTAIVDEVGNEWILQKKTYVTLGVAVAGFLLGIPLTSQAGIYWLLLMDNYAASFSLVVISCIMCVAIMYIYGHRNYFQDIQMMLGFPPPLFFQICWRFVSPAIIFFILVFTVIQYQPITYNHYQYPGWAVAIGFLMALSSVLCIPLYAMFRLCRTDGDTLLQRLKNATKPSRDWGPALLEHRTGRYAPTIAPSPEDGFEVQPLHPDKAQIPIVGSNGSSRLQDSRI

[2] = target: T2, Sodium- and chloride-dependent glycine transporter 2 (Homo sapiens, UniProt Q9Y345); test: Inhibition of human GlyT2 expressed in HEK293 cells assessed as inhibition of [3H]glycine uptake by scintillation proximity assay; type: cell-based
T2 sequence (Q9Y345 whole entry): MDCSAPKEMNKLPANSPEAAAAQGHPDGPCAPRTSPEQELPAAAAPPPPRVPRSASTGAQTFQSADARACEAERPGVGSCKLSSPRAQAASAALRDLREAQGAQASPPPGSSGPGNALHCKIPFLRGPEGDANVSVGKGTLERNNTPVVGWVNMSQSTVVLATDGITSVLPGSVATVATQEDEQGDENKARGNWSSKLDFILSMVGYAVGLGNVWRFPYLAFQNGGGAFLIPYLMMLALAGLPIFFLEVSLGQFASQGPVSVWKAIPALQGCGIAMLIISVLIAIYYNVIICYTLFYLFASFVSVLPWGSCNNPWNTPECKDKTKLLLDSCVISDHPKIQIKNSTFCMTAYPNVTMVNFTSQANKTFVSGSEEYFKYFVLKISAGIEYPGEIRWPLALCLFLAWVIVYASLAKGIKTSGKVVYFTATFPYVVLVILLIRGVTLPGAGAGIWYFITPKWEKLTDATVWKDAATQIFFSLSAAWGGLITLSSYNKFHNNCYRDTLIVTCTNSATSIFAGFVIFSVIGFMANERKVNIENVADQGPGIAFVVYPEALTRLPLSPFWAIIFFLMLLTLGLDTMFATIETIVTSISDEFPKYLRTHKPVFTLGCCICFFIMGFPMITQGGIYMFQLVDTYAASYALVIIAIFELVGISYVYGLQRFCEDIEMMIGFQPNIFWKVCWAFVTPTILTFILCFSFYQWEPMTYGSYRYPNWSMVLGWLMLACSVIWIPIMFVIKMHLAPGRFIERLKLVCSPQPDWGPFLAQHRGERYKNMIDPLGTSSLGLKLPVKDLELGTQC

[3] = Metabolic stability in human liver microsomes assessed as compound remaining at 10 uM after 60 mins; type: ADME, Microsome; details: read-out: Stability
[4] = Tmax in rat at 2 mg/kg, iv and 10 mg/kg, po; type: ADME, organism-based; details: in vivo
Salmonella typhimurium [5] = test: Mutagenicity against Salmonella typhimurium TA100 by mini-AMES test in presence of rat S9 fraction; type: toxicity, organism-based; details: salmonella enterica subsp. enterica serovar typhimurium
[6] = AUC (0 to infinity) in rat at 2 mg/kg, iv and 10 mg/kg, po; type: ADME, organism-based; details: plasma
Salmonella typhimurium [7] = test: Mutagenicity against Salmonella typhimurium TA98 by mini-AMES test in presence of rat S9 fraction; type: toxicity, organism-based; details: salmonella enterica subsp. enterica serovar typhimurium
Cytochrome P450 2C9 = Cytochrome P450 2C9 (Homo sapiens, UniProt P11712); test: Inhibition of CYP2C9 (unknown origin); type: ADME
Sequence of Cytochrome P450 2C9 (P11712 whole entry): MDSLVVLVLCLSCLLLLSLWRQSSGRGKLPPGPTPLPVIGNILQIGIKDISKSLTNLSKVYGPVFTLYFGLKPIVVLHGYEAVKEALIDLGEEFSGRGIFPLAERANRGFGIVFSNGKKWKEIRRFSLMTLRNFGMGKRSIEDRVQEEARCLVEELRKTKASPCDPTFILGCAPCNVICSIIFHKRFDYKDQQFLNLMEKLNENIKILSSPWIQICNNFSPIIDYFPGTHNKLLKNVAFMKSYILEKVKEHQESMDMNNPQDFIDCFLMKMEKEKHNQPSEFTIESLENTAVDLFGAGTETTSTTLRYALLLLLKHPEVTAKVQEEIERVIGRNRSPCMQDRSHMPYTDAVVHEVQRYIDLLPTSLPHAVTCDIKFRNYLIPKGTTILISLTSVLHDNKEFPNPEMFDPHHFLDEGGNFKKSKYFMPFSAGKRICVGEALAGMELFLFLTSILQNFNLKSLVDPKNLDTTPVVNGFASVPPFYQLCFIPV

Rattus norvegicus [8] = test: Antischizophrenic activity in rat assessed as increased glycine level in CSF at 30 to 75 mg/kg, po after 30 mins relative to control; type: functional, organism-based
[9] = Plasma protein binding in rat; type: ADME, cell-free; details: read-out: PPB (converted)
[10] = Total plasma clearance in rat at 2 mg/kg, iv and 10 mg/kg, po; type: ADME, organism-based
[11] = Intrinsic clearance in human liver microsomes at 1 uM; type: ADME, Microsome; details: read-out: CLH
Salmonella typhimurium [12] = test: Mutagenicity against Salmonella typhimurium TA98 by mini-AMES test in absence of rat S9 fraction; type: toxicity, organism-based; details: salmonella enterica subsp. enterica serovar typhimurium
Cytochrome P450 3A4 = Cytochrome P450 3A4 (Homo sapiens, UniProt P08684); test: Inhibition of CYP3A4 (unknown origin); type: ADME
Sequence of Cytochrome P450 3A4 (P08684 whole entry): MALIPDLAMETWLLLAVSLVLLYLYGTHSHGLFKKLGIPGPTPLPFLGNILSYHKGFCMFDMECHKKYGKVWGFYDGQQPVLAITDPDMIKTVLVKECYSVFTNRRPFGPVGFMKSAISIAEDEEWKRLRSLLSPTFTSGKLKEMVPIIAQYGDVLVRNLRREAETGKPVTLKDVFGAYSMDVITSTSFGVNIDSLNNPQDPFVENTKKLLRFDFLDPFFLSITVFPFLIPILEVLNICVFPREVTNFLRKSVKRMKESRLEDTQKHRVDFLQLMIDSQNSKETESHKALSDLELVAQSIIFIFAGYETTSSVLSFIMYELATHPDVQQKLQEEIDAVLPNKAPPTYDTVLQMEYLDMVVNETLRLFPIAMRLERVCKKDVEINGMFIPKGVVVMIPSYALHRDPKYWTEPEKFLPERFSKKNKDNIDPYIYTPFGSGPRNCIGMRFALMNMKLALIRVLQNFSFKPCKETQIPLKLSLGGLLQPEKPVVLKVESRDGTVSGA

[13] = Terminal half life in rat at 2 mg/kg, iv and 10 mg/kg, po; type: ADME, organism-based; details: in vivo, read-out: beta t1/2 (converted)
Rattus norvegicus [14] = test: Antischizophrenic activity in po dosed rat assessed as increased glycine level in CSF after 30 mins relative to control; type: functional, organism-based
[15] = Oral bioavailability in rat at 10 mg/kg; type: ADME, organism-based; details: in vivo
Cytochrome P450 2D6 = Cytochrome P450 2D6 (Homo sapiens, UniProt P10635); test: Inhibition of CYP2D6 (unknown origin); type: ADME
Sequence of Cytochrome P450 2D6 (P10635 whole entry): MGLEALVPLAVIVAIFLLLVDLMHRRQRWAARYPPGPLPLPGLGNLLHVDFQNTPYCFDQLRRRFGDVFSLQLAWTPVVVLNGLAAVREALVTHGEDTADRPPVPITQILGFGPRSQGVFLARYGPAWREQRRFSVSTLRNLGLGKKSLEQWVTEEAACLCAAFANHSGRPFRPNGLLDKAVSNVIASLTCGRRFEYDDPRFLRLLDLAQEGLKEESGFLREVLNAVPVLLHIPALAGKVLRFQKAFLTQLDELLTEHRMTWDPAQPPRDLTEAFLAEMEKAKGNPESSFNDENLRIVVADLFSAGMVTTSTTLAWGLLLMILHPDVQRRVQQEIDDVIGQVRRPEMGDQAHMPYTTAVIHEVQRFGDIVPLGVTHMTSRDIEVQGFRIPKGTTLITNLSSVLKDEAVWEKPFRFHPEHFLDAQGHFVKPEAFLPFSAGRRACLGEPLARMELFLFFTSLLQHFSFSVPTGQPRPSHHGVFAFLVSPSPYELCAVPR

Cytochrome P450 2C19 = Cytochrome P450 2C19 (Homo sapiens, UniProt P33261); test: Inhibition of CYP2C19 (unknown origin); type: ADME
Sequence of Cytochrome P450 2C19 (P33261 whole entry): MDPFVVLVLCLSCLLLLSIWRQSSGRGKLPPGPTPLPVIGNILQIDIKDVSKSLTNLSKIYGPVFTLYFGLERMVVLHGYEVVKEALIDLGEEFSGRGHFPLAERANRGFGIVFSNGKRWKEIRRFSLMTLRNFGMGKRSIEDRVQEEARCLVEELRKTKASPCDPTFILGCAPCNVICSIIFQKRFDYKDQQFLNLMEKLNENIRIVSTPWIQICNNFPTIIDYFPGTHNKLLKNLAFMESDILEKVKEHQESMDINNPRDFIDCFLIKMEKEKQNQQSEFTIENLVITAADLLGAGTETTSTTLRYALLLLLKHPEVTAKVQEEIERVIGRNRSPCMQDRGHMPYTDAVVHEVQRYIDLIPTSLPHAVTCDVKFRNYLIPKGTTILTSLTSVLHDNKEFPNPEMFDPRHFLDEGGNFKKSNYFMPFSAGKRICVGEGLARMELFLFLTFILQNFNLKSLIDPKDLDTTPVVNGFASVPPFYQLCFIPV

[16] = Cmax in rat at 2 mg/kg, iv and 10 mg/kg, po; type: ADME, organism-based; details: in vivo
[17] = Drug uptake in po dosed rat CSF after 30 mins; type: ADME, organism-based, Cerebrospinal fluid; details: in vivo, 0.5 h
[18] = Intrinsic clearance in rat liver microsomes at 1 uM; type: ADME, Microsome; details: read-out: CLH
[19] = Volume of distribution at steady state in rat at 2 mg/kg, iv and 10 mg/kg, po; type: ADME, organism-based; details: in vivo, read-out: Vdss
[20] = Plasma protein binding in human; type: ADME, cell-free; details: read-out: PPB (converted)
[21] = Ratio of drug uptake in brain to plasma in rat at 10 to 75 mg/kg, po after 30 mins; type: ADME, organism-based; design: dose 10-75 mg/kg, route oral; details: read-out: BPR
Salmonella typhimurium [22] = test: Mutagenicity against Salmonella typhimurium TA100 by mini-AMES test in absence of rat S9 fraction; type: toxicity, organism-based; details: salmonella enterica subsp. enterica serovar typhimurium

CCCS(=O)(=O)N1CCN(C2(CNC(=O)c3c(N)cccc3Cl)CCCCCC2)CC1
pIC50 [1]: 8.20

CCCS(=O)(=O)N1CCN(C2(CNC(=O)c3c(F)cccc3F)CCCCC2)CC1
pIC50 [2]: < 4.12 | remaining at 1 h, 10 µM [3]: 16%

CCCS(=O)(=O)N1CCN(C2(CNC(=O)c3ccc(OC(F)(F)F)cc3)CCCCC2)CC1
pIC50 [2]: < 4.12 | remaining at 1 h, 10 µM [3]: 11%

CCCS(=O)(=O)N1CCN(C2(CNC(=O)c3ccccc3OC(F)(F)F)CCCCC2)CC1
pIC50 [2]: < 4.12 | remaining at 1 h, 10 µM [3]: 2%

CCCS(=O)(=O)N1CCN(C2(CNC(=O)c3c(F)cccc3F)C[C@H]3C[C@H]3C2)CC1 (mixture of isomers)
pIC50 [1]: 6.21

CCCS(=O)(=O)N1CCN(C2(CNC(=O)c3cccc(C(F)(F)F)c3Cl)CCCCC2)CC1
pIC50 [1]: 7.11 | pIC50 [2]: < 4.12 | remaining at 1 h, 10 µM [3]: 1%

CCCS(=O)(=O)N1CCN(C2(CNC(=O)c3ccc(Cl)c(Cl)c3)CCCCC2)CC1
pIC50 [2]: < 4.12 | remaining at 1 h, 10 µM [3]: 5%

CCCS(=O)(=O)N1CCN(C2(CNC(=O)c3c(N)cccc3Cl)CCCCC2)CC1
pIC50 [1]: 7.82 | pIC50 [2]: < 4.12 | remaining at 1 h, 10 µM [3]: 29%

CCCS(=O)(=O)N1CCN(C2(CNC(=O)c3c(F)cccc3F)CCC(F)(F)CC2)CC1
Tmax [4]: 1.5 h | Activity (Salmonella typhimurium [5]): Non-toxic | AUC(0-inf) [6]: 2000 ng·h/mL | Activity (Salmonella typhimurium [7]): Non-toxic | pIC50 (Cytochrome P450 2C9): < 5.00 | Activity (Rattus norvegicus [8]): Active | fraction unbound [9]: 0.16 | clearance [10]: 22 mL/min/kg | microsomal CLint at 1 µM [11]: 13 µL/min/mg | Activity (Salmonella typhimurium [12]): Non-toxic | pIC50 (Cytochrome P450 3A4): < 5.00 | half-life [13]: 2.9 h | Activity (Rattus norvegicus [14]): Dose-dependent effect | bioavailability [15]: 25.7% | pIC50 (Cytochrome P450 2D6): < 5.00 | pIC50 (Cytochrome P450 2C19): < 5.00 | remaining at 1 h, 10 µM [3]: 64% | Cmax [16]: 486 ng/mL | Drug uptake [17]: Dose-dependent effect | microsomal CLint at 1 µM [18]: 5.5 µL/min/mg | Vd [19]: 3.26 L/kg | fraction unbound [20]: 0.13 | Kp at 0.5 h [21]: 0.13 | Activity (Salmonella typhimurium [22]): Non-toxic

CCCS(=O)(=O)N1CCN(C2(CNC(=O)c3c(N)cccc3Cl)CCN(C)CC2)CC1
remaining at 1 h, 10 µM [3]: 40%

CCCS(=O)(=O)N1CCN(C2(CNC(=O)c3c(OC)cc(F)cc3SC)CCCCC2)CC1
pIC50 [1]: 8.21 | remaining at 1 h, 10 µM [3]: 1%

CCCS(=O)(=O)N1CCN(C2(CNC(=O)c3ccc(Cl)cc3Cl)CCOCC2)CC1
pIC50 [1]: 6.30 | remaining at 1 h, 10 µM [3]: 100%

CCCS(=O)(=O)N1CCN(C2(CNC(=O)c3cccc(C(F)(F)F)c3)CCCCC2)CC1
pIC50 [1]: 6.28 | pIC50 [2]: < 4.12

CCCS(=O)(=O)N1CCN(C2(CNC(=O)c3ccc(Cl)cc3)CCCCC2)CC1
pIC50 [1]: 6.76 | pIC50 [2]: < 4.12 | remaining at 1 h, 10 µM [3]: 4%

CCCS(=O)(=O)N1CCN(C2(CNC(=O)c3ccc(OC)cc3F)CCCCC2)CC1
pIC50 [1]: 7.77 | pIC50 [2]: < 4.12 | remaining at 1 h, 10 µM [3]: 4%

CCCS(=O)(=O)N1CCN(C2(CNC(=O)c3ccc(F)cc3C)CCCCC2)CC1
pIC50 [2]: < 4.12 | remaining at 1 h, 10 µM [3]: 2%

CCCS(=O)(=O)N1CCN(C2(CNC(=O)c3ccccc3C(F)(F)F)CCCCC2)CC1
remaining at 1 h, 10 µM [3]: 5%

CCCS(=O)(=O)N1CCN(C2(CNC(=O)c3c(OC)cc(C(F)(F)F)cc3C(F)(F)F)CCCCC2)CC1
pIC50 [1]: 8.36 | pIC50 [2]: < 4.12 | remaining at 1 h, 10 µM [3]: 10%

CCCS(=O)(=O)N1CCN(C2(CNC(=O)c3c(Cl)cccc3Cl)CCCCC2)CC1
pIC50 [1]: 7.89 | pIC50 [2]: < 4.12 | remaining at 1 h, 10 µM [3]: 3%

CCCS(=O)(=O)N1CCN(C2(CNC(=O)c3ccc(Cl)cc3Cl)CCCCC2)CC1
pIC50 [1]: 7.64 | pIC50 [2]: < 4.12 | remaining at 1 h, 10 µM [3]: 11%
